For one test, the target named is T1, HepR (Xanthomonas campestris, UniProt Q8P3A9).
T1 construct: gene slyA; 147-amino acid protein, His-tagged HepR (pET28a), dimer
The experiment in a line: ITC with purified His-HepR (Kd […]); confirmed by SPR (Kd […]); SA inhibits HepR–Phep binding in EMSA. In general terms: Mobility shift assays separate free from complexed probe on a gel.

In test [1] the target is HepR (MarR family transcription factor, Xcc4167) (Xanthomonas campestris pv. campestris (strain XC1)). As to the kind of experiment: SEC; FPLC gel filtration of Ni-NTA purified His-tagged HepR on Superdex 75; 25 mM HEPES, 150 mM NaCl, pH 7.4. On the technique in general: SEC sorts molecules by how far they enter the pores of the column.

Usually Kd stands for the concentration at which binding is half-saturated. Read a high Kd as weaker binding. Consider `O=C(O)c1ccccc1O` [SA, Salicylic acid], for which, on HepR, the affinity, expressed as Kd, was 19.3 µM.

One may read the stoichiometry N as a count of units in the complex or per binding partner. As for “HepR (MarR family transcription factor, Xcc4167) (natural protein)”, the stoichiometry N in test [1] turned out to be 2.

The record behind these values is article PMC11442134, “The phytopathogen Xanthomonas campestris senses and effluxes salicylic acid via a sensor HepR and an RND family efflux pump to promote virulence in host plants” (mLife, 2024).
